Reference: US12195482B1 (Arcus Biosciences, Inc., priority 2022, dated 2025)

Tests used:
p-AXL = molecular target: T1, p-AXL (Homo sapiens, UniProt P30530); experiment: Axl phosphorylation inhibition ELISA in HEK293T cells transfected with NanoLuc-tagged AXL; format: cell-based; conditions: 1 h compound incubation, media (OptiMEM)
T1 construct: expressed in transfected cells; host or cells: HEK293T
T1 sequence (P30530 26-894): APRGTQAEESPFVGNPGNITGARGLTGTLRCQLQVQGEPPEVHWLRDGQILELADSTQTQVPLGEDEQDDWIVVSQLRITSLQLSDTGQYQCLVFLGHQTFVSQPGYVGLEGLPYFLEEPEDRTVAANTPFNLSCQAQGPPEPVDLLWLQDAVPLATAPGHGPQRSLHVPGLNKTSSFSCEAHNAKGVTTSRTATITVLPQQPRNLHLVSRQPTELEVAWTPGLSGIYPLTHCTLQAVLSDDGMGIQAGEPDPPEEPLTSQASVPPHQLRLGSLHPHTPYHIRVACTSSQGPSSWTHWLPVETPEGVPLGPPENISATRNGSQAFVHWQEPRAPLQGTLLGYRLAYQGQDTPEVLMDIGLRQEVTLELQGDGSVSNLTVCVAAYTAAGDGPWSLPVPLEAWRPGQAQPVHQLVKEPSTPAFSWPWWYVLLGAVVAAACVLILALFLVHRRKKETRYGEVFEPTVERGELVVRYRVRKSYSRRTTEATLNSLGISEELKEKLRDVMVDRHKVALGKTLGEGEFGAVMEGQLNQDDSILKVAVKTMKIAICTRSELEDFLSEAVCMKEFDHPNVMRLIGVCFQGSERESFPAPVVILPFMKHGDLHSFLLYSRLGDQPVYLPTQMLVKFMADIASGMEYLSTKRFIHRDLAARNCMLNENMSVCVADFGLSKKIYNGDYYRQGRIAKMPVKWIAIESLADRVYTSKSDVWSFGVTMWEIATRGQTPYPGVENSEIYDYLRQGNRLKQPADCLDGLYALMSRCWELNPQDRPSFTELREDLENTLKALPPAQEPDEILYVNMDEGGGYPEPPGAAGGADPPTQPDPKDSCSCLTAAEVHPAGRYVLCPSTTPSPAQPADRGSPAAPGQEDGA
In short: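 Phospho-AXL detected by luminescence of NanoLuc tag after capture of cell lysate on biotinylated anti-phospho-tyrosine mAb plates (2 h). Lysates came from transiently transfected HEK293T cells treated 1 h at 37° C with serial 2-fold dilutions (22 points). IC50 by standard 4-parameter logistic fitting.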

Axl = molecular target: T2, Axl (Homo sapiens, UniProt P30530); experiment: Biochemical potency, HTRF KinEASE-TK kinase assay; design: purchased Invitrogen; conditions: 5 nM AXL, 700 μM ATP
T2 sequence (P30530 26-894): T1 sequence (P30530 26-894)
In short: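 Phosphorylation of a biotinylated tyrosine-kinase peptide (800 nM) by AXL (5 nM) or TYRO3/MER (1 nM) is measured at 700 µM ATP after 2 h at room temperature, following 1 h enzyme–compound preincubation. Signal is the time-resolved FRET ratio, converted to percent activity.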

## Cc1cnc(C)c(-c2ccc(-c3c[nH]c4ncc(-c5ccc6c(c5)CC[C@@H](N5C7COCC5C7)CC6)cc34)cc2)n1 [Example 53, 6-[(7S)-2-{3-[4-(3,6-Dimethylpyrazin-2-yl)phenyl]-1H-pyrrolo[2,3-b]pyridin-5-yl}-6,7,8,9-tetrahydro-5H-benzo[7]annulen-7-yl]-3-oxa-6-azabicyclo[3.1.1]heptane]
p-AXL
  IC50: < 100 nM
Axl
  IC50: < 100 nM

## CC(C)(C#N)c1cccnc1-c1ccc(-c2n[nH]c3ncc(-c4ccc5c(c4)CC[C@@H](N4C6COCC4C6)CC5)cc23)cc1 [Example 85, 2-Methyl-2-[2-[4-[5-[(7S)-7-(3-oxa-6-azabicyclo[3.1.1]heptan-6-yl)-6,7,8,9-tetrahydro-5H-benzo[7]annulen-3-yl]-1H-pyrazolo[3,4-b]pyridine-3-yl]phenyl]pyridine-3-yl]propanenitrile]
p-AXL
  IC50: < 100 nM
Axl
  IC50: < 100 nM

## Cc1cnc(C)c(-c2ccc(-c3c[nH]c4ncc(-c5ccc6c(c5)CC[C@@](C)(N5CCC[C@H]5C)CC6)cc34)cc2)n1 [Example 58, 2,5-Dimethyl-3-(4-{5-[(7S)-7-methyl-7-[(2R)-2-methylpyrrolidin-1-yl]-6,7,8,9-tetrahydro-5H-benzo[7]annulen-2-yl]-1H-pyrrolo[2,3-b]pyridin-3-yl}phenyl)pyrazine]
p-AXL
  IC50: < 100 nM
Axl
  IC50: < 100 nM

## Cc1cc(C)c(-c2ccc(-c3c[nH]c4ncc(-c5ccc6c(c5)CC[C@@H](N5C7COCC5C7)CC6)cc34)cc2)nn1 [Example 80, 6-[(7S)-2-{3-[4-(4,6-Dimethylpyridazin-3-yl)phenyl]-1H-pyrrolo[2,3-b]pyridin-5-yl}-6,7,8,9-tetrahydro-5H-benzo[7]annulen-7-yl]-3-oxa-6-azabicyclo[3.1.1]heptane]
p-AXL
  IC50: < 100 nM
Axl
  IC50: < 100 nM

## c1cc(-n2cc(-c3c[nH]c4ncc(-c5ccc6c(c5)CC[C@@H](N5C7COCC5C7)CC6)cc34)cn2)ccn1 [Example 45, 6-[(7S)-2-{3-[1-(Pyridin-4-yl)-1H-pyrazol-4-yl]-1H-pyrrolo[2,3-b]pyridin-5-yl}-6,7,8,9-tetrahydro-5H-benzo[7]annulen-7-yl]-3-oxa-6-azabicyclo[3.1.1]heptane]
p-AXL
  IC50: 100 to 1000 nM
Axl
  IC50: < 100 nM

## COc1ccnc(-c2ccc(-c3c[nH]c4ncc(-c5ccc6c(c5)CC[C@@H](N5C7COCC5C7)CC6)cc34)cc2)c1C [Example 86, 6-[(7S)-3-[3-[4-(4-Methoxy-3-methylpyridin-2-yl)phenyl]-1H-pyrrolo[2,3-b]pyridin-5-yl]-6,7,8,9-tetrahydro-5H-benzo[7]annulen-7-yl]-3-oxa-6-azabicyclo[3.1.1]heptane]
p-AXL
  IC50: 100 to 1000 nM
Axl
  IC50: < 100 nM

## Cc1cccnc1-c1ccc(-c2c[nH]c3ncc(-c4ccc5c(c4)CC[C@@H](N4C6COCC4C6)CC5)cc23)cc1 [Example 1, 6-[(7S)-2-{3-[4-(3-Methylpyridin-2-yl)phenyl]-1H-pyrrolo[2,3-b]pyridin-5-yl}-6,7,8,9-tetrahydro-5H-benzo[7]annulen-7-yl]-3-oxa-6-azabicyclo[3.1.1]heptane]
p-AXL
  IC50: < 100 nM
Axl
  IC50: < 100 nM

## Cc1cccnc1-c1ccc(-c2n[nH]c3ncc(-c4ccc5c(c4)CC[C@@H](N4C6COCC4C6)CC5)cc23)cc1 [Example 2, 6-[(7S)-2-{3-[4-(3-Methylpyridin-2-yl)phenyl]-2H-pyrazolo[3,4-b]pyridin-5-yl}-6,7,8,9-tetrahydro-5H-benzo[7]annulen-7-yl]-3-oxa-6-azabicyclo[3.1.1]heptane]
p-AXL
  IC50: < 100 nM
Axl
  IC50: < 100 nM

## C[C@@H]1CCCN1[C@@]1(C)CCc2ccc(-c3cnc4[nH]nc(-c5ccc(-c6ncco6)cc5)c4c3)cc2CC1 [Example 90, 2-(4-{5-[(7S)-7-Methyl-7-[(2R)-2-methylpyrrolidin-1-yl]-6,7,8,9-tetrahydro-5H-benzo[7]annulen-2-yl]-2H-pyrazolo[3,4-b]pyridin-3-yl}phenyl)-1,3-oxazole]
p-AXL
  IC50: < 100 nM
Axl
  IC50: < 100 nM

## Cc1cncnc1-c1ccc(-c2c[nH]c3ncc(-c4ccc5c(c4)CC[C@@H](N4C6COCC4C6)CC5)cc23)cc1 [Example 47, 6-[(7S)-2-{3-[4-(5-Methylpyrimidin-4-yl)phenyl]-1H-pyrrolo[2,3-b]pyridin-5-yl}-6,7,8,9-tetrahydro-5H-benzo[7]annulen-7-yl]-3-oxa-6-azabicyclo[3.1.1]heptane]
p-AXL
  IC50: < 100 nM
Axl
  IC50: < 100 nM

## Cc1cc(C)c(-c2ccc(-c3n[nH]c4ncc(-c5ccc6c(c5)CC[C@@H](N5C7COCC5C7)CC6)cc34)cc2)nn1 [Example 77, 6-[(7S)-2-{3-[4-(4,6-Dimethylpyridazin-3-yl)phenyl]-1H-pyrazolo[3,4-b]pyridin-5-yl}-6,7,8,9-tetrahydro-5H-benzo[7]annulen-7-yl]-3-oxa-6-azabicyclo[3.1.1]heptane]
p-AXL
  IC50: < 100 nM
Axl
  IC50: < 100 nM

## Cc1nccnc1-c1ccc(-c2c[nH]c3ncc(-c4ccc5c(c4)CC[C@@H](N4C6COCC4C6)CC5)cc23)nc1 [Example 54, 6-[(7S)-2-{3-[5-(3-Methylpyrazin-2-yl)pyridin-2-yl]-1H-pyrrolo[2,3-b]pyridin-5-yl}-6,7,8,9-tetrahydro-5H-benzo[7]annulen-7-yl]-3-oxa-6-azabicyclo[3.1.1]heptane]
p-AXL
  IC50: < 100 nM
Axl
  IC50: < 100 nM

## Cc1cnc(-c2ccc(-c3c[nH]c4ncc(-c5ccc6c(c5)CC[C@@H](N5C7COCC5C7)CC6)cc34)cc2)c(C)n1 [Example 50, 6-[(7S)-2-{3-[4-(3,5-Dimethylpyrazin-2-yl)phenyl]-1H-pyrrolo[2,3-b]pyridin-5-yl}-6,7,8,9-tetrahydro-5H-benzo[7]annulen-7-yl]-3-oxa-6-azabicyclo[3.1.1]heptane]
p-AXL
  IC50: < 100 nM
Axl
  IC50: < 100 nM

## Cc1cc(C)c(-c2ccc(-c3n[nH]c4ncc(-c5ccc6c(c5)CC[C@@](C)(N5CCC[C@H]5C)CC6)cc34)cc2)nn1 [Example 78, 4,6-Dimethyl-3-(4-{5-[(7S)-7-methyl-7-[(2R)-2-methylpyrrolidin-1-yl]-6,7,8,9-tetrahydro-5H-benzo[7]annulen-2-yl]-1H-pyrazolo[3,4-b]pyridin-3-yl}phenyl)pyridazine]
p-AXL
  IC50: < 100 nM
Axl
  IC50: < 100 nM

## Cc1cnc(-c2ccc(-c3c[nH]c4ncc(-c5ccc6c(c5)CC[C@@](C)(N5CCC[C@H]5C)CC6)cc34)cc2)c(C)n1 [Example 57, 3,5-Dimethyl-2-(4-{5-[(7S)-7-methyl-7-[(2R)-2-methylpyrrolidin-1-yl]-6,7,8,9-tetrahydro-5H-benzo[7]annulen-2-yl]-1H-pyrrolo[2,3-b]pyridin-3-yl}phenyl)pyrazine]
p-AXL
  IC50: < 100 nM
Axl
  IC50: < 100 nM

## FC(F)(F)c1cccnc1-c1ccc(-c2n[nH]c3ncc(-c4ccc5c(c4)CC[C@@H](N4C6COCC4C6)CC5)cc23)cc1 [Example 88, 6-[(7S)-3-[3-[4-[3-(Trifluoromethyl)pyridin-2-yl]phenyl]-1H-pyrazolo[3,4-b]pyridin-5-yl]-6,7,8,9-tetrahydro-5H-benzo[7]annulen-7-yl]-3-oxa-6-azabicyclo[3.1.1]heptane]
p-AXL
  IC50: 100 to 1000 nM
Axl
  IC50: < 100 nM

## CN(C)C(=O)c1ccccc1-c1ccc(-c2c[nH]c3ncc(-c4ccc5c(c4)CC[C@@H](N4C6COCC4C6)CC5)cc23)cc1 [Example 92, N,N-Dimethyl-4′-{5-[(7S)-7-{3-oxa-6-azabicyclo[3.1.1]heptan-6-yl}-6,7,8,9-tetrahydro-5H-benzo[7]annulen-2-yl]-1H-pyrrolo[2,3-b]pyridin-3-yl}-[1,1′-biphenyl]-2-carboxamide]
p-AXL
  IC50: < 100 nM
Axl
  IC50: < 100 nM

## N#Cc1cccnc1-c1ccc(-c2n[nH]c3ncc(-c4ccc5c(c4)CC[C@@H](N4C6COCC4C6)CC5)cc23)cc1 [Example 52, 2-(4-{5-[(7S)-7-{3-Oxa-6-azabicyclo[3.1.1]heptan-6-yl}-6,7,8,9-tetrahydro-5H-benzo[7]annulen-2-yl]-1H-pyrazolo[3,4-b]pyridin-3-yl}phenyl)pyridine-3-carbonitrile]
p-AXL
  IC50: < 100 nM
Axl
  IC50: < 100 nM

## Cc1ccnnc1-c1ccc(-c2n[nH]c3ncc(-c4ccc5c(c4)CC[C@@H](N4C6COCC4C6)CC5)cc23)nc1 [Example 56, 6-[(7S)-2-{3-[5-(4-Methylpyridazin-3-yl)pyridin-2-yl]-1H-pyrazolo[3,4-b]pyridin-5-yl}-6,7,8,9-tetrahydro-5H-benzo[7]annulen-7-yl]-3-oxa-6-azabicyclo[3.1.1]heptane]
p-AXL
  IC50: < 100 nM
Axl
  IC50: < 100 nM
